Source: article PMC10730845, “Endoxifen downregulates AKT phosphorylation through protein kinase C beta 1 inhibition in ERα+ breast cancer” (NPJ Breast Cancer, 2023)

How the values were obtained:
[1] = tested on: PKCβ1 in MCF7AC1 cells; experiment: Immunoblot of PKCβ1 and pPKCβ1^Ser661, MCF7AC1; type: cell-based, human; conditions: serum starved, 1 µM ENZA 2 h, 200 nM PMA 30 min
[2] = tested on: AKT phosphorylation (pAKT^Ser473, pAKT^Thr308, p-AKT substrates) in MCF7AC1 cells; experiment: Immunoblot of AKT signaling and PARP cleavage, MCF7AC1; type: cell-based, human; conditions: for Effect on insulin-stimulated AKT^Ser473 and AKT^Thr308 phosphorylations: 100 nM insulin 1 h, 0.1 µM
Description: The ENDX hydrochloride utilized in this study was synthesized in collaboration between Mayo Clinic and National Institute of Health (NIH). Estrogen deprived MCF7AC1 were treated with vehicle control or ENDX (National Cancer Institute) for 24 h. […] For the insulin (Sigma-Aldrich, #I0516) experiments, MCF7AC1 and T47D cells were maintained in serum-free medium for 24 h prior to pretreatment with vehicle control or drugs for 2 h followed by treatment with 100 nM insulin for 1 h.
(§1) Protein lysates were prepared using the RIPA lysis buffer system (ChemCruz #sc-24948) and quantified using the DC^TM Protein Assay reagents (Bio-Rad #5000112). Equal amounts of protein lysates were separated on 10% Criterion gels (Bio-Rad #3450112), transferred to PVDF membranes (Bio-Rad #1620177), blocked in TBST-5% milk and probed with primary antibodies listed in Supplementary Table 5, at the indicated dilutions. Membranes were incubated with HRP-conjugated anti-rabbit (CST #7074) or anti-mouse (CST #7076) secondary antibodies and visualized using chemiluminescent West Pico (Thermo Scientific #34580) or West Femto (Thermo Scientific #34096) reagents and a Li-Cor Odyssey® XF imager. Protein lysates from the MCF7AC1 xenograft model were obtained from a previous study. Quantitation of the protein bands signal intensity was performed using the NIH ImageJ image analysis software (https://imagej.nih.gov/ij///index.html). For the quantitation of the phospho protein levels, we first normalized total protein levels to β-actin loading control and used these values to normalize the phospho protein levels and compared change in protein expression levels relative to vehicle control normalized to 1.0. For the quantitation of total protein levels, we normalized the total protein levels to β-actin and compared change in expression levels relative to vehicle control normalized to 1.0. All blots were processed in parallel and derived from the same experiments. Unprocessed immunoblot images are provided in Supplementary Figs. 9–13.

[3] = tested on: T47D-LTED cells; experiment: Crystal violet cell viability assay, T47D-LTED; type: cell-based, human; conditions: CSS medium, six days
Description: (§2) Cells were plated at a density of 2000 cells per well. Cell viability of (i) vehicle or drug treated MCF7AC1 and T47D-LTED cells in CSS medium, (ii) siNT or siPKCβ-transfected MCF7AC1 cells in CSS medium and (iii) T47D cells in FBS versus CSS medium were analyzed by crystal violet staining assay after 6 days of treatment or siRNA transfection as previously described. Cell viability was calculated as the average absorbance of the drug treated cells divided by the average absorbance of the vehicle treated cells × 100.
(§3) Supplementary Figure 6. […] Cell viability is assessed by the crystal violet assay. b, MCF7AC1 cells were co-treated with vehicle control or 0.01, 0.1 and 5 µM MK-2206 and IncuCyte Annexin V green and NucLight rapid red reagents in CSS medi um for 48 hours. […]
Cells were plated at a density of 2000 cells per well. c, MCF7AC1 cells were treated with vehicle control or 0.01, 0.1 and 5 µM MK-2206 in CSS medium for 24 hours. […] Cell viability is assessed by the crystal violet assay. f, Parental T47D and T47D-LTED cells were processed for protein lysates. […] Cell viability is assessed by the crystal violet assay. h, T47D-LTED cells were co-treated with vehicle control or 0.01, 0.1 and 5 µM MK -2206 and IncuCyte Annexin V green and NucLight rapid red reagents in CSS medium for 48 hours. […] Cell viability is assessed by the crystal violet assay. […]

[4] = tested on: MCF7AC1 cells; experiment: Crystal violet cell viability / proliferation assay, MCF7AC1; type: cell-based, human; conditions: estrogen deprived (CSS), six days
Description: Fig. 1 Z-endoxifen (ENDX) effects on cell viability and apoptosis in estrogen deprived ERα+ /HER2- MCF7AC1 cells. a Cells grown in CSS medium were treated with vehicle control or the indicated ENDX concentrations for […]. Cell viability was assessed by the crystal violet assay. b Cells were co-treated with vehicle control or the indicated ENDX concentrations, IncuCyte Annexin V green and NucLight red reagents in CSS medium for 48 h. […] Data represents the mean of six wells per treatment performed as biological duplicates ± s.d. **p ≤ 0.01; ***p ≤ 0.001; ****p ≤ 0.0001 by one-way ANOVA.
as §2

[5] = tested on: AKT^Ser473 phosphorylation in T47D-LTED cells; experiment: Immunoblot of pAKT^Ser473, T47D-LTED; type: cell-based, human; conditions: CSS medium, 24 h; 1 and 5 µM, but not 0.1 µM
Description: as §1, with “All blots were processed in parallel and derived from the same experiments. Unprocessed immunoblot images are provided in Supplementary Figs. 9–13.” left out

[6] = tested on: T47D-LTED cells; experiment: IncuCyte Annexin V apoptosis assay, T47D-LTED; type: cell-based, human; conditions: CSS medium; 1 and 5 µM, but not 0.1 µM
Description: (§4) MCF7AC1 and T47D-LTED cells were plated at a density of 2000 cells per well in CSS medium for 24 h. Cells were then co-treated for 48 h with vehicle or drug, IncuCyte Annexin V green reagent (#4642, 1:300), an early-stage apoptosis marker, and IncuCyte NucLight rapid red reagent (#4717, 1:500), a dye that stains all cell nuclei red, in CSS medium. MCF7AC1^caAKT cells were plated at a cell density of 2000 cells per well in CSS medium in the absence or presence of cumate for 48 h and then co-treated with vehicle or drug, Annexin V green and NucLight rapid red reagents in the absence or presence of cumate for an additional 48 h in CSS medium.
as §3
Cells were plated at a density of 2000 cells per well. c, MCF7AC1 cells were treated with vehicle control or 0.01, 0.1 and 5 µM MK-2206 in CSS medium for 24 hours. […] Cell viability is assessed by the crystal violet assay. f, Parental T47D and T47D-LTED cells were processed for protein lysates. […] Percentage of cells undergoing apoptosis was calculated as mentioned in b. i, T47D-LTED cells were treated with vehicle control or 0.01, 0.1 and 5 µM MK -2206 in CSS medium for 24 hours . […]

[7] = tested on: MCF7AC1 cells; experiment: IncuCyte Annexin V apoptosis assay, MCF7AC1; type: cell-based, human; conditions: for Effect on apoptosis: CSS medium, 48 h, ENDX 5 µM, TAM 0.1 µM, ICI 0.1 µM
Description: as §4

[8] = ERα+ breast cancer patients receiving 20 mg/day TAM monotherapy; cited from earlier work
[9] = tested on: PKCβ1 in MCF7AC1 cells; experiment: Immunoblot of PKCβ1 and pPKCβ1^Ser661, MCF7AC1; type: cell-based, human; conditions: serum starved; for Effect on PKCβ1 total protein in insulin treated cells: 100 nM insulin 1 h, ENDX 0.01, 0.1, 5 µM, TAM 0.1 µM, ICI 0.1 µM
Description: (§5) The ENDX hydrochloride utilized in this study was synthesized in collaboration between Mayo Clinic and National Institute of Health (NIH). Estrogen deprived MCF7AC1 were treated with vehicle control or ENDX (National Cancer Institute) for 24 h. For the phorbol 12-myristate 13-acetate (PMA) (LC Laboratories, #P-1680) experiments, MCF7AC1 cells were maintained in serum-free medium for 24 h prior to pretreatment with vehicle or ENDX for 2 h followed by treatment with 20 or 200 nM PMA for 20 min. For the insulin (Sigma-Aldrich, #I0516) experiments, MCF7AC1 and T47D cells were maintained in serum-free medium for 24 h prior to pretreatment with vehicle control or drugs for 2 h followed by treatment with 100 nM insulin for 1 h.
as §1

[10] = tested on: AKT phosphorylation in T47D cells; experiment: Immunoblot of AKT phosphorylation, serum starved T47D; type: cell-based, human; conditions: 0.1 µM
Description: as §5
as §1, with “Protein lysates from the MCF7AC1 xenograft model were obtained from a previous study.” left out, “All blots were processed in parallel and derived from the same experiments. Unprocessed immunoblot images are provided in Supplementary Figs. 9–13.” left out

[11] = tested on: ERα+/HER2- metastatic breast cancer; conditions: cited from earlier work

## Cn1cc(C2=C(c3cn(C4CCN(Cc5ccccn5)CC4)c4ccccc34)C(=O)NC2=O)c2ccccc21 [enzastaurin]
[1]
  Effect on PKCβ1 expression: neither impacted the expression of PKCβ1
  Effect on PMA-stimulated PKCβ1^Ser661 phosphorylation: reduced PKCβ1^Ser661 phosphorylation

## Insulin: known activator of AKT^Ser473 phosphorylation (Sigma-Aldrich)
[2]; serum starved, 100 nM, 1 h
  Effect on AKT^Ser473 phosphorylation: robustly stimulated AKT^Ser473 phosphorylation

## NC1(c2ccc(-c3nc4ccn5c(=O)[nH]nc5c4cc3-c3ccccc3)cc2)CCC1 [MK-2206, reference compound]
[3]
  Concentration from which growth was significantly inhibited: ≥ 0.1 µM
[2]; estrogen deprived (CSS), 24 h
  Concentrations at which AKT^Ser473 phosphorylation was reduced: ≥ 1 µM
[4]
  Concentrations at which growth was inhibited: ≥ 0.1 µM
[5]
  Concentrations reducing AKT^Ser473 phosphorylation: ≥ 1 µM
[6]
  Concentrations increasing apoptosis (annexin V staining, PARP cleavage): ≥ 1 µM
[7]; estrogen deprived (CSS)
  Concentration at which apoptosis (annexin V binding and PARP1 cleavage) was induced: 5 µM

## CC/C(=C(\c1ccc(O)cc1)c1ccc(OCCN(C)C)cc1)c1ccccc1 [4-HT]
[8]
  Clinically attainable serum concentration: < 5 nM

## CCCCCCCCCCCCCC(=O)O[C@@H]1[C@@H](C)[C@@]2(O)[C@@H](C=C(CO)C[C@]3(O)C(=O)C(C)=C[C@@H]23)[C@@H]2C(C)(C)[C@]12OC(C)=O [PMA, phorbol 12-myristate 13-acetate, reference compound]
[9]; 20 and 200 nM, 20 min
  Effect of PKC agonist on PKCβ1^Ser661 and AKT^Ser473 phosphorylation: stimulated PKCβ1^Ser661 auto-phosphorylation and AKT^Ser473 phosphorylation

## CC/C(=C(\c1ccccc1)c1ccc(OCCN(C)C)cc1)c1ccccc1 [TAM, tamoxifen, reference compound]
[2]; serum starved
  Effect on insulin-stimulated AKT^Ser473 and AKT^Thr308 phosphorylations: failed to inhibit insulin-stimulated AKT^Ser473 and AKT^Thr308 phosphorylations
[10]
  Effect on insulin-stimulated AKT^Ser473 phosphorylation: failing to block insulin-stimulated AKT^Ser473 phosphorylation
[11]; CDK4/6i naïve
  PFS in CDK4/6 inhibitor naïve patients: 2.4 m
[11]; women with ERα+/HER2- metastatic breast cancer progressed on endocrine therapy
  Progression free survival (PFS) overall: 1.8 m
[9]
  Effect on PKCβ1 total protein in insulin treated cells: failed to diminish PKCβ1 total protein expression
[7]
  Effect on apoptosis: failed to induce apoptosis

## C[C@]12CC[C@@H]3c4ccc(O)cc4C[C@@H](CCCCCCCCC[S+]([O-])CCCC(F)(F)C(F)(F)F)[C@H]3[C@@H]1CC[C@@H]2O (stereo partly drawn) [ICI, ICI-182780, reference compound]
[2]; serum starved
  Effect on insulin-stimulated AKT^Ser473 and AKT^Thr308 phosphorylations: failed to inhibit insulin-stimulated AKT^Ser473 and AKT^Thr308 phosphorylations
[10]
  Effect on insulin-stimulated AKT^Ser473 phosphorylation: failing to block insulin-stimulated AKT^Ser473 phosphorylation
[9]
  Effect on PKCβ1 total protein in insulin treated cells: failed to diminish PKCβ1 total protein expression
[7]
  Effect on apoptosis: failed to induce apoptosis
